The values below come from patent US9873680B2 (Gilead Sciences, Inc., priority 2014, dated 2018).

Read-outs that look alike come from different tables or passages of the source.

Data set [1] concerns HIV-IIIb. Description: Test A: Antiviral Assay in MT4 Cells. It is filed as cell-based, HIV-1. The note with it: for inhibition at 0.2 µM: 0.2 μM drug concentration; for inhibition at 2 µM: 2 μM drug concentration, read-out: Response at 2 μM (percent inhibition of virus-induced cell killing). Put shortly:
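Readout was CellTiter-Glo luminescence after 10 min room-temperature lysis, taken 5 days after plating at 37 °C. The 2000 MT-4 cells per well, mixed 1 h beforehand with HIV-IIIb (m.o.i. 0.003), went straight onto the diluted compound.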

A short description of data set [2]: Test B: Cytotoxicity Assay. The note with it: human, uninfected MT-4 cells, CellTiter-Glo. In kind it is cell-based. The procedure: Test B: Cytotoxicity Assay Compound cytotoxicity and the corresponding CC50 values was determined using the same protocol as described in the antiviral assay (Test A) except that uninfected cells were used.
On the technique in general: In ATP-based viability assays light output follows the ATP content of the culture.

Where [3] appears, read: Human immunodeficiency virus 1, MT4, 120 h, MT-4 cells infected with HIV-IIIb, 5 days, values normalized to 100%, average over time, read-out: % inhibition at 0.2 μM (percent inhibition of virus-induced cell killing).
The mark [4] stands for this setting: Human immunodeficiency virus 1, IIIB, MT4, comparison with previously published compounds, read-out: Response at 0.2 μM (percent inhibition of virus-induced cell killing).
The mark [5] stands for this setting: Human immunodeficiency virus 1, IIIB, MT4, comparison with previously published compounds.

In the case of `Cn1nc(NS(C)(=O)=O)c2c(Cl)ccc(-c3ccc(C#CC4(O)CC(F)(F)C4)nc3[C@H](Cc3cc(F)cc(F)c3)NC(=O)Cn3nc(C(F)F)c4c3C(F)(F)CCC4(F)F)c21` [Compound 104, (S)—N-(1-(3-(4-chloro-1-methyl-3-(methylsulfonamido)-1H-indazol-7-yl)-6-((3,3-difluoro-1-hydroxycyclobutyl)ethynyl)pyridin-2-yl)-2-(3,5-difluorophenyl)ethyl)-2-(3-(difluoromethyl)-4,4,7,7-tetrafluoro-4,5,6,7-tetrahydro-1H-indazol-1-yl)acetamide], the inhibition (in general, the drop in the measured response relative to a control, in per cent) at 0.2 µM in data set [1] (setting [3]) was 100%. Besides, in data set [2], the CC50 (as a rule, the concentration giving 50% cytotoxicity) at 5 days was determined as 8.42 µM.

In the case of `Cc1cncc(C#Cc2ncc(-c3ccc(F)c(C(N)=O)c3)c([C@H](Cc3cc(F)cc(F)c3)NC(=O)Cn3nc(C(F)(F)F)c4c3C(F)(F)[C@@H]3C[C@H]43)n2)c1` [Compound 19, 5-(4-((S)-1-(2-((3bS,4aR)-5,5-difluoro-3-(trifluoromethyl)-3b,4,4a,5-tetrahydro-1H-cyclopropa[3,4]cyclopenta[1,2-c]pyrazol-1-yl)acetamido)-2-(3,5-difluorophenyl)ethyl)-2-((5-methylpyridin-3-yl)ethynyl)pyrimidin-5-yl)-2-fluorobenzamide], the inhibition at 0.2 µM in data set [1] (setting [4]) and in data set [1] (setting [3]) was 83% each time. Moreover, the inhibition at 2 µM in data set [1] (setting [5]) turned out to be 88%. Also, the midpoint of cytotoxicity in data set [2], the CC50 at 5 days, lay at 4.63 µM.

Take `Cn1nc(NS(C)(=O)=O)c2c(Cl)ccc(-c3ccc(C#CC(C)(C)N4CCOC4=O)nc3[C@H](Cc3cc(F)cc(F)c3)NC(=O)Cn3nc(C(F)(F)F)c4c3C(F)(F)[C@@H]3C[C@H]43)c21` [Compound 63, N—((S)-1-(3-(4-chloro-1-methyl-3-(methylsulfonamido)-1H-indazol-7-yl)-6-(3-methyl-3-(2-oxooxazolidin-3-yl)but-1-yn-1-yl)pyridin-2-yl)-2-(3,5-difluorophenyl)ethyl)-2-((3bS,4aR)-5,5-difluoro-3-(trifluoromethyl)-3b,4,4a,5-tetrahydro-1H-cyclopropa[3,4]cyclopenta[1,2-c]pyrazol-1-yl)acetamide]: the inhibition at 0.2 µM in data set [1] (setting [3]) is 90%. The CC50 at 5 days in data set [2] stood at 20.7 µM.

For `Cn1nc(NS(C)(=O)=O)c2c(Cl)ccc(-c3ccc(C#CC4(O)CO[C@H]5OCC[C@H]54)nc3[C@H](Cc3cc(F)cc(F)c3)NC(=O)Cn3nc(C(F)F)c4c3C(F)(F)[C@@H]3C[C@H]43)c21` (stereo partly drawn) [Compound 52, N-((1S)-1-(3-(4-chloro-1-methyl-3-(methylsulfonamido)-1H-indazol-7-yl)-6-(((3aS,6aR)-3-hydroxyhexahydrofuro[2,3-b]furan-3-yl)ethynyl)pyridin-2-yl)-2-(3,5-difluorophenyl)ethyl)-2-((3bS,4aR)-3-(difluoromethyl)-5,5-difluoro-3b,4,4a,5-tetrahydro-1H-cyclopropa[3,4]cyclopenta[1,2-c]pyrazol-1-yl)acetamide], in data set [1] (setting [3]), the inhibition at 0.2 µM turned out to be 96%. This compound also returned a CC50 at 5 days in data set [2] of 17.1 µM.

Consider `Cn1nc(NS(C)(=O)=O)c2c(Cl)ccc(-c3ccc(C#CC4CC4)nc3[C@H](Cc3cc(F)cc(F)c3)NC(=O)Cn3nc(C(F)F)c4c3C(F)(F)[C@@H]3C[C@H]43)c21` [Compound 96, N—((S)-1-(3-(4-chloro-1-methyl-3-(methylsulfonamido)-1H-indazol-7-yl)-6-(cyclopropylethynyl)pyridin-2-yl)-2-(3,5-difluorophenyl)ethyl)-2-((3bS,4aR)-3-(difluoromethyl)-5,5-difluoro-3b,4,4a,5-tetrahydro-1H-cyclopropa[3,4]cyclopenta[1,2-c]pyrazol-1-yl)acetamide], for which the inhibition at 0.2 µM in data set [1] (setting [4]) and in data set [1] (setting [3]) was 82% each time. Besides, the inhibition at 2 µM in data set [1] (setting [5]) came to 82%. Further, in data set [2], the CC50 at 5 days worked out at 20.1 µM.
